Source: the supplement of paper PMC4862054

What was measured:
Conditions in all cases: incubation time: 72 h
BT-549 [1] = experiment: normalised viability (% of control), CellTiter-Blue; higher = more viable cells (about 100 = DMSO control)
Procedure, shortened: (§1)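 Breast cancer cell lines in 20 µl suspension were seeded onto 384-well plates pre-loaded with compound dissolved in 5 µl medium, then incubated 72 h. CellTiter-Blue reagent (2.5 µl) was added for 2 h at 37 °C and fluorescence read at 560/590 nm. Each plate was normalised to vehicle (100) and a positive kill control (0), with Z'-factor quality control. The value is normalised viability at one listed concentration of the series.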

DU-4475 [2] = experiment: as above
Procedure, shortened: as §1

HDQ-P1 [3] = experiment: as above
Procedure, shortened: as §1

CAL-85-1 [4] = experiment: as above
Procedure, shortened: as §1

CAL-51 [5] = experiment: as above
Procedure, shortened: as §1

MFM-223 = experiment: as above
Procedure, shortened: as §1

HCC1937 = experiment: as above
Procedure, shortened: as §1

BT-474 [6] = experiment: as above
Procedure, shortened: as §1

CAL-148 [7] = experiment: as above
Procedure, shortened: as §1

Hs578T [8] = experiment: as above
Procedure, shortened: as §1

BT-549 [9] = experiment: drug sensitivity score (DSS), CellTox Green (DSS (AUC-based score)); higher = stronger drug effect (viability inhibition or cytotoxicity); extreme values may be limits of the assay
Procedure, shortened: (§2)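 Each compound occupied 5 concentrations in 10-fold steps over its own 10,000-fold range in 384-well plates, into which breast cancer cell lines were seeded as 20 µl suspension. Following 72 h of incubation, CellTox Green fluorescence (485/520 nm) was measured, and CellTiter-Glo luminescence was measured after 10 min at room temperature. Plates were individually normalised to 0.1 % DMSO and a positive kill control. From the area under the fitted dose-response curve, a drug sensitivity score was calculated.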

DU-4475 [10] = experiment: as above
Procedure, shortened: as §2

HDQ-P1 [11] = experiment: as above
Procedure, shortened: as §2

CAL-85-1 [12] = experiment: as above
Procedure, shortened: as §2

CAL-51 [13] = experiment: as above
Procedure, shortened: as §2

MDA-MB-468 = experiment: as above
Procedure, shortened: as §2

MDA-MB-436 = experiment: as above
Procedure, shortened: as §2

MDA-MB-231 = experiment: as above
Procedure, shortened: as §2

CAL-120 = experiment: as above
Procedure, shortened: as §2

HCC1143 = experiment: as above
Procedure, shortened: as §2

BT-474 [14] = experiment: as above
Procedure, shortened: as §2

CAL-148 [15] = experiment: as above
Procedure, shortened: as §2

Hs578T [16] = experiment: as above
Procedure, shortened: as §2

MDA-MB-453 = experiment: as above
Procedure, shortened: as §2

HCC1599 = experiment: as above
Procedure, shortened: as §2

Nc1ccccc1NC(=O)c1ccc(CNC(=O)OCc2cccnc2)cc1 [Entinostat]
normalised viability (BT-549 [1]; 10 nM): 110% | normalised viability (BT-549 [1]; 1000 nM): 102% | normalised viability (BT-549 [1]; 10000 nM): 61.4% | normalised viability (DU-4475 [2]; 3 nM): 117% | normalised viability (DU-4475 [2]; 30 nM): 117% | normalised viability (DU-4475 [2]; 100 nM): 105% | normalised viability (HDQ-P1 [3]; 3 nM): 103% | normalised viability (HDQ-P1 [3]; 30 nM): 110% | normalised viability (HDQ-P1 [3]; 100 nM): 102% | normalised viability (CAL-85-1 [4]; 3 nM): 98.1% | normalised viability (CAL-85-1 [4]; 30 nM): 100% | normalised viability (CAL-85-1 [4]; 100 nM): 99.6% | normalised viability (CAL-51 [5]; 3 nM): 116% | normalised viability (CAL-51 [5]; 30 nM): 106% | normalised viability (CAL-51 [5]; 100 nM): 109% | normalised viability (MFM-223; 10 nM): 110% | normalised viability (MFM-223; 1000 nM): 93.6% | normalised viability (MFM-223; 10000 nM): 19.9% | normalised viability (HCC1937; 10 nM): 124% | normalised viability (HCC1937; 1000 nM): 82.4% | normalised viability (HCC1937; 10000 nM): 56.8% | normalised viability (BT-474 [6]; 10 nM): 108% | normalised viability (BT-474 [6]; 1000 nM): 97% | normalised viability (BT-474 [6]; 10000 nM): 31.9% | normalised viability (CAL-148 [7]; 3 nM): 85.4% | normalised viability (CAL-148 [7]; 30 nM): 84.9% | normalised viability (CAL-148 [7]; 100 nM): 86.7% | normalised viability (Hs578T [8]; 10 nM): 100% | normalised viability (Hs578T [8]; 1000 nM): 97.6% | normalised viability (Hs578T [8]; 10000 nM): 25% | drug sensitivity score (BT-549 [9]): 0 | drug sensitivity score (DU-4475 [10]): 0 | drug sensitivity score (HDQ-P1 [11]): 0 | drug sensitivity score (CAL-85-1 [12]): 4.07 | drug sensitivity score (CAL-51 [13]): 7.91 | drug sensitivity score (MDA-MB-468): 11.1 | drug sensitivity score (MDA-MB-436): 4.39 | drug sensitivity score (MDA-MB-231): 1.91 | drug sensitivity score (CAL-120): 0 | drug sensitivity score (HCC1143): 0 | drug sensitivity score (BT-474 [14]): 0 | drug sensitivity score (CAL-148 [15]): 1.86 | drug sensitivity score (Hs578T [16]): 0 | drug sensitivity score (MDA-MB-453): 0 | drug sensitivity score (HCC1599): 0
